What was measured:
[1] = Stability of crystal forms in a constant-humidity and constant-temperature cabinet; format: physicochemical; details: for Crystal form after exposure, 80° C. and 75% RH, 1 day / Crystal form after exposure, 80° C. and 75% RH, 3 days: powder; for Crystal form stability under 80° C. and 75% RH (text summary of Table 2): time not stated
Description: The stability of crystal forms A, B, C, D, E, F and G of selumetinib sulfate was tested by placing the different crystal forms of selumetinib sulfate into a constant-humidity and constant-temperature cabinet, where the powder of each crystal form was exposed to a temperature of 80° C. and a relative humidity (RH) of 75%.

[2] = solid; cited from earlier work
[3] = cited from earlier work

With `Cn1cnc2c(F)c(Nc3ccc(Br)cc3Cl)c(C(=O)NOCCO)cc21.O=S(=O)(O)O` [Crystal form D, selumetinib sulfate] the “Crystal form after exposure, 80° C. and 75% RH, 1 day” value ([1]; listed as D) was “Remained D”, the “Crystal form after exposure, 80° C. and 75% RH, 3 days” value ([1]; listed as D) was “Remained D” and the “Crystal form stability under 80° C. and 75% RH (text summary of Table 2)” value ([1]; listed as D) was “remained unchanged”.

In the case of `Cn1cnc2c(F)c(Nc3ccc(Br)cc3Cl)c(C(=O)NOCCO)cc21.O=S(=O)(O)O` [Crystal form B, selumetinib sulfate], the “Crystal form after exposure, 80° C. and 75% RH, 1 day” value ([1]; listed as B) is reported as “Remained B”, the “Crystal form after exposure, 80° C. and 75% RH, 3 days” value ([1]; listed as B) is reported as “Remained B” and the “Crystal form stability under 80° C. and 75% RH (text summary of Table 2)” value ([1]; listed as B) is reported as “remained unchanged”.

For `Cn1cnc2c(F)c(Nc3ccc(Br)cc3Cl)c(C(=O)NOCCO)cc21.O=S(=O)(O)O` [Crystal form G, selumetinib sulfate], the “Crystal form after exposure, 80° C. and 75% RH, 1 day” value ([1]; listed as G) was “Remained G”, the “Crystal form after exposure, 80° C. and 75% RH, 3 days” value ([1]; listed as G) was “Remained G” and the “Crystal form stability under 80° C. and 75% RH (text summary of Table 2)” value ([1]; listed as G) was “remained unchanged”.

With `Cn1cnc2c(F)c(Nc3ccc(Br)cc3Cl)c(C(=O)NOCCO)cc21.O=S(=O)(O)O` [Crystal form E, selumetinib sulfate] the “Crystal form after exposure, 80° C. and 75% RH, 1 day” value ([1]; listed as E) was “Remained E”, the “Crystal form after exposure, 80° C. and 75% RH, 3 days” value ([1]; listed as E) was “Remained E” and the “Crystal form stability under 80° C. and 75% RH (text summary of Table 2)” value ([1]; listed as E) was “remained unchanged”.

In the case of `Cn1cnc2c(F)c(Nc3ccc(Br)cc3Cl)c(C(=O)NOCCO)cc21.O=S(=O)(O)O` [Crystal form C, selumetinib sulfate], the “Crystal form after exposure, 80° C. and 75% RH, 1 day” value ([1]; listed as C) is reported as “Remained C”, the “Crystal form after exposure, 80° C. and 75% RH, 3 days” value ([1]; listed as C) is reported as “Remained C” and the “Crystal form stability under 80° C. and 75% RH (text summary of Table 2)” value ([1]; listed as C) is reported as “remained unchanged”.

In the case of `Cn1cnc2c(F)c(Nc3ccc(Br)cc3Cl)c(C(=O)NOCCO)cc21.O=S(=O)(O)O` [Crystal form F, selumetinib sulfate], the “Crystal form after exposure, 80° C. and 75% RH, 1 day” value ([1]; listed as F) is reported as “Remained F”, the “Crystal form after exposure, 80° C. and 75% RH, 3 days” value ([1]; listed as F) is reported as “Remained F” and the “Crystal form stability under 80° C. and 75% RH (text summary of Table 2)” value ([1]; listed as F) is reported as “remained unchanged”.

With `Cn1cnc2c(F)c(Nc3ccc(Br)cc3Cl)c(C(=O)NOCCO)cc21.O=S(=O)(O)O` [Crystal form A, selumetinib sulfate] the “Crystal form after exposure, 80° C. and 75% RH, 1 day” value ([1]; listed as A) was “A turned into C”, the “Crystal form after exposure, 80° C. and 75% RH, 3 days” value ([1]; listed as A) was “A turned into C” and the “Crystal form stability under 80° C. and 75% RH (text summary of Table 2)” value ([1]; listed as crystal form A) was “turned into crystal form C”.

For `Cn1cnc2c(F)c(Nc3ccc(Br)cc3Cl)c(C(=O)NOCCO)cc21.O=S(=O)(O)O` [Selumetinib sulfate], the Hygroscopicity [2] is given as “non-hygroscopic”, the Solubility in acetonitrile ([3]; acetonitrile) is given as “slightly soluble” and the Solubility in ethanol ([3]; ethanol) is given as “slightly soluble”. The Solubility in water ([3]; water) was “very low solubility”.

From patent US12552751B2, “Crystal forms A, B, C, D, E, F and G of selumetinib sulfate and preparation methods thereof” (Chunghwa Chemical Synthesis & Biotech Co. Ltd., priority 2023, dated 2026)
